The test system of test [1] is Candida albicans. In words: Antifungal activity against Candida albicans ATCC 90028 assessed as number of fungal cells with pseudohyphae out of 100 cells at 0.5 time MIC after 0 to 6 hrs by light microscopy. It counts as functional.
In test [2] the test system is Candida albicans. Description: Antifungal activity against Candida albicans ATCC 90028 assessed as number of fungal cells without pseudohyphae out of 100 cells at 0.5 time MIC after 0 to 6 hrs by light microscopy. It is filed as functional.
The subject of test [3] is Candida albicans. In words: Antifungal activity against Candida albicans ATCC 90028 assessed as increase in 117 kDa fungal protein at 0.5 time MIC after 1 hr by electrophoresis-based microchip technology. It is filed as functional, organism-based.
The test system of test [4] is Candida albicans. Description: Antifungal activity against Candida albicans ATCC 90028 assessed as increase in 124 kDa fungal protein at 2 times MIC after 1 hr by electrophoresis-based microchip technology. It is filed as functional, organism-based.
Test [5] concerns Candida parapsilosis. In words: Antifungal activity against Candida parapsilosis ATCC 22019 after 48 hrs by macro tube dilution method. It is filed as functional. The note with it: Lodderomyces parapsilosis, ATCC 22019, 48 h.
In test [6] the test system is Candida albicans. Description: Antifungal activity against Candida albicans ATCC 90028 assessed as increase in 124 kDa fungal protein at 0.5 time MIC after 1 hr by electrophoresis-based microchip technology. It is filed as functional, organism-based.
Test [7] has as its system Candida albicans. Description: Antifungal activity against Candida albicans ATCC 90028 assessed as increase in 147 kDa fungal protein at 0.5 time MIC after 1 hr by electrophoresis-based microchip technology. It is filed as functional, organism-based.
The test system of test [8] is Pichia kudriavzevii. In words: Antifungal activity against Candida krusei ATCC 30068 after 48 hrs by macro tube dilution method. It counts as functional. The note with it: ATCC 30068, 48 h.
Test [9] deals with Aspergillus sp. In words: Antifungal activity against Aspergillus sp. after 48 hrs by macro tube dilution method. It is filed as functional.
Test [10] concerns Candida albicans. Description: Antifungal activity against Candida albicans ATCC 90028 assessed as increase in 104 kDa fungal protein at 2 times MIC after 1 hr by electrophoresis-based microchip technology. It counts as functional, organism-based.
Test [11] has as its system Candida albicans. Description: Antifungal activity against Candida albicans ATCC 90028 after 48 hrs by macro tube dilution method. It counts as functional. The note with it: ATCC 90028, 48 h.
In test [12] the test system is Nakaseomyces glabratus. Description: Antifungal activity against Candida glabrata ATCC 3916 after 48 hrs by macro tube dilution method. It counts as functional. The settings on record: ATCC 3916, 48 h.
Test [13] deals with Candida albicans. In words: Antifungal activity against Candida albicans ATCC 90028 assessed as increase in 117 kDa fungal protein at 2 times MIC after 1 hr by electrophoresis-based microchip technology. It counts as functional, organism-based.
Test [14] deals with Candida albicans. In words: Antifungal activity against Candida albicans ATCC 90028 assessed as increase in 104 kDa fungal protein at 0.5 time MIC after 1 hr by electrophoresis-based microchip technology. It counts as functional, organism-based.
Test [15] has as its system Candida albicans. Description: Antifungal activity against Candida albicans ATCC 90028 assessed as increase in 147 kDa fungal protein at 2 times MIC after 1 hr by electrophoresis-based microchip technology. It is filed as functional, organism-based.
Test [16] concerns Saccharomyces cerevisiae. Description: Antifungal activity against Saccharomyces cerevisiae after 48 hrs by macro tube dilution method. It counts as functional.
Test [17] has as its system Candida albicans. In words: Antifungal activity against Candida albicans ATCC 90028 assessed as inhibition of fungal ergosterol synthesis at 1.56 ug/mL after 16 hrs by UV spectrophotometry. It is filed as functional, organism-based.
Test [18] has as its system Candida albicans. Description: Antifungal activity against Candida albicans ATCC 90028 assessed as changes in fungal protein expression at 0.5 time MIC after 1 hr by electrophoresis-based microchip technology. It counts as functional, organism-based.
In test [19] the test system is Candida albicans. Description: Antifungal activity against Candida albicans ATCC 90028 assessed as changes in fungal protein expression at 2 times MIC after 1 hr by electrophoresis-based microchip technology. It is filed as functional, organism-based.
In test [20] the test system is Candida albicans. In words: Inhibition of chitin synthase in Candida albicans ATCC 90028 at 1.5 times MIC by liquid scintillation analyzer relative to nikkomycin.
Test [21] concerns Candida albicans. In words: Antifungal activity against Candida albicans ATCC 90028 assessed as inhibition of fungal ergosterol synthesis at 25 ug/mL after 16 hrs by UV spectrophotometry. It counts as functional, organism-based.
Test [22] is filed under the species Rattus norvegicus. In words: Inhibition of lactate dehydrogenase in Wistar rat kidney at 1.5 times MIC relative to control.
The test system of test [23] is Candida albicans. In words: Antifungal activity against Candida albicans ATCC 90028 assessed as inhibition of fungal ergosterol synthesis at 0.5 times MIC after 16 hrs by UV spectrophotometry. It is filed as functional, organism-based.

≈ marks a conversion by molar mass, not a printed value. Calls of active or inactive are those of the source. A value given as a limit tells only on which side of the number the result lay.

The MIC is the smallest concentration in the dilution series that meets the test's criterion for growth inhibition. Low readings indicate a more susceptible organism, high ones a less susceptible organism. As a reminder, the inhibition is how much of the control response was suppressed.

Consider `C[C@@H]1[C@H](O)[C@@H](C)/C=C/C=C/C=C/C=C/C=C/C=C/C=C/[C@H](O[C@@H]2O[C@H](C)[C@@H](O)[C@H](N)[C@@H]2O)C[C@@H]2O[C@](O)(C[C@@H](O)C[C@@H](O)[C@H](O)CC[C@@H](O)C[C@@H](O)CC(=O)O[C@H]1C)C[C@H](O)[C@H]2C(=O)O` [AMPHOTERICIN B], for which the values for the Activity in [1] and in test [2] were 18 and 77, respectively.

Consider `O=C1/C(=C/c2ccccc2)CCC1CN1CCc2ccccc2C1` (stereo unspecified), for which the result in test [3], in test [4], in test [6], in test [7], in [10] and in test [13] was Active. Besides, the result in [14] and in test [15] was Active. In addition, the MIC amounted to 12.5 µg/mL (≈ 39.4 µM) in test [5]; 12.5 µg/mL (≈ 39.4 µM) in test [8]; 200 µg/mL (≈ 630 µM) in test [9]; 12.5 µg/mL (≈ 39.4 µM) in [11]; 6.25 µg/mL (≈ 19.7 µM) in test [12]; 1.56 µg/mL (≈ 4.91 µM) in test [16].

As to `OC(Cn1cncn1)(Cn1cncn1)c1ccc(F)cc1F`, the result in [17] was inactive.

Take `O=C1/C(=C/c2ccccc2)CCCCC1CN1CCCCC1` (stereo unspecified): the Activity in [1] came to 47; in test [2], 39. Further, the MIC in test [5] was found to be 200 µg/mL (≈ 672 µM); in [8], 100 µg/mL (≈ 336 µM); in test [9], 100 µg/mL (≈ 336 µM); in [11] it was 50 µg/mL (≈ 168 µM); in [12], 100 µg/mL (≈ 336 µM); in [16] it was 100 µg/mL (≈ 336 µM). Also, the outcome in test [18], in test [19] and in [21] was inactive. Further, in test [20], the inhibition came to 24%. Moreover, the inhibition result in test [22] is “inactive”.

As for `COc1ccccc1/C=C1\CCC(CN2CCOCC2)C1=O` (stereo unspecified), the Activity in test [1] is listed as 9; in test [2], 81. Moreover, the result in test [23] was inactive. For the same compound, the MIC in [5] was 12.5 µg/mL (≈ 41.5 µM); in test [8], 3.12 µg/mL (≈ 10.4 µM); in test [9], above 200 µg/mL; in [11], 3.12 µg/mL (≈ 10.4 µM); in [12], 12.5 µg/mL (≈ 41.5 µM); in [16] it was 6.25 µg/mL (≈ 20.7 µM).

As for `COc1ccc(/C=C2\CC[C@@H](CN3CCCCC3)[C@@H]2O)cc1` (relative stereo), the result in [3], in test [4], in test [6], in test [13] and in test [14] was Active. Moreover, the MIC is above 200 µg/mL in test [5]; 100 µg/mL (≈ 332 µM) in test [8]; 200 µg/mL (≈ 664 µM) in test [9]; 100 µg/mL (≈ 332 µM) in test [11]; above 200 µg/mL in test [12]; 100 µg/mL (≈ 332 µM) in test [16]. The outcome in [7], in test [10] and in test [15] was inactive.

For `COc1cccc(/C=C2\CCC(CN3CCOCC3)C2=O)c1` (stereo unspecified), the outcome in test [17] and in [22] was inactive. Moreover, the MIC in test [5] turned out to be 3.12 µg/mL (≈ 10.4 µM); in test [8], 3.12 µg/mL (≈ 10.4 µM); in [9], 50 µg/mL (≈ 166 µM); in test [11], 3.12 µg/mL (≈ 10.4 µM); in test [12] it was 3.12 µg/mL (≈ 10.4 µM); in test [16], 1.56 µg/mL (≈ 5.18 µM). The inhibition entry in test [20] is “inactive”.

Consider `COc1ccc(/C=C2\CCC(CN3CCCCC3)C2=O)cc1` (stereo unspecified), for which the outcome in test [3], in test [4], in test [6], in test [7], in test [10] and in [13] was Active. The result in test [14] and in [15] was Active. Further, the MIC in [5] was determined as 6.25 µg/mL (≈ 20.9 µM); in [8], 12.5 µg/mL (≈ 41.7 µM); in test [9], 100 µg/mL (≈ 334 µM); in test [11], 12.5 µg/mL (≈ 41.7 µM); in [12], 6.25 µg/mL (≈ 20.9 µM); in [16], 3.12 µg/mL (≈ 10.4 µM).

The record behind these values is ChEMBL document CHEMBL1137749, “Antifungal unsaturated cyclic Mannich ketones and amino alcohols: study of mechanism of action” (2009).
